From patent US20130143872A1, “INJECTABLE FORMULATION OF A REVERSE TRANSCRIPTASE INHIBITOR FOR THE TREATMENT CANCER” (priority 2010, published 2013)
Converted amounts (≈) assume the structure as drawn.

How the values were obtained:
[1] = cited from earlier work
[2] = Recrystallisation of nevirapine from water-ethanol co-solvent systems: crystal form and crystal habit; format: physicochemical
[3] = EtOH:H2O 90:0 ml, water content 0 % v/v
[4] = EtOH:H2O 90:4.7 ml, water content 5 % v/v
[5] = EtOH:H2O 90:22.5 ml, water content 20 % v/v
[6] = EtOH:H2O 90:38.6 ml, water content 30 % v/v
[7] = EtOH:H2O 90:60 ml, water content 40 % v/v
[8] = EtOH:H2O 90:90 ml, water content 50 % v/v
[9] = EtOH:H2O 90:135 ml, water content 60 % v/v
[10] = EtOH:H2O 90:210 ml, water content 70 % v/v
[11] = EtOH:H2O 90:360 ml, water content 80 % v/v

Structure (SMILES) | solubility in water [1] [mg/mL] | Crystal Habit ([2]; EtOH:H2O 90:0 ml (so in the source), water content 10 % v/v) | Crystal Habit [2, 3] | Nevirapine Form Obtained [2, 3] | Crystal Habit [2, 4] | Nevirapine Form Obtained [2, 4] | Crystal Habit [2, 5] | Nevirapine Form Obtained [2, 5] | Crystal Habit [2, 6] | Nevirapine Form Obtained [2, 6] | Crystal Habit [2, 7] | Nevirapine Form Obtained [2, 7] | Crystal Habit [2, 8] | Nevirapine Form Obtained [2, 8] | Crystal Habit [2, 9] | Nevirapine Form Obtained [2, 9] | Crystal Habit [2, 10] | Nevirapine Form Obtained [2, 10] | Crystal Habit [2, 11] | Nevirapine Form Obtained [2, 11]
Nc1ncnc2c1ncn2CCOCP(=O)(O)O [Adefonir] | 0.4 (≈ 1460 µM) |  |  |  |  |  |  |  |  |  |  |  |  |  |  |  |  |  |  | 
Cc1ccnc2c1NC(=O)c1cccnc1N2C1CC1 [nevirapine] |  | Very small tabular | Tabular crystals | Hemi-Ethanolate | Smaller tabular | Hemi-Ethanolate | Disorganized | Hemi-Hydrate | Disorganized | Hemi-Hydrate | Columnar clusters | Hemi-Hydrate | Platy clusters | Hemi-Hydrate | Platy crystals | Hemi-Hydrate | Platy crystals | Hemi-Hydrate | Very small bladed | Anhydrous
